What all share (assay type): cell-based
One test addresses T1, GIP-R (Homo sapiens, UniProt P48546).
T1 sequence (P48546 22-466): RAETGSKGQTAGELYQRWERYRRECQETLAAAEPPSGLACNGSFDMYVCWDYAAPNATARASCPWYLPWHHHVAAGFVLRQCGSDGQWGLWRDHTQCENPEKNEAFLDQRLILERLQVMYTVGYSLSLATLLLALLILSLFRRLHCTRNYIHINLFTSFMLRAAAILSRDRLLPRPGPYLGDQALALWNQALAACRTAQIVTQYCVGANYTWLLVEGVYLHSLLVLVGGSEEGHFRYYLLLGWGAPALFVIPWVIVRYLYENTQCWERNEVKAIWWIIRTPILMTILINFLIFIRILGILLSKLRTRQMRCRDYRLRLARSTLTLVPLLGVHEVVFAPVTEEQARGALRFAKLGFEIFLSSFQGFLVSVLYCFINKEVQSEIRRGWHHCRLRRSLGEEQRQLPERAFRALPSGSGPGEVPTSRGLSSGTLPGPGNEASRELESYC
As to the kind of experiment: HitHunter cAMP assay (GIP-R). To be noted: cAMP; for Emax: read-out: (Emax) GIP-R. An outline of the steps:
(§1)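 Duplicate 22-point, 2-fold agonist titrations applied to receptor-expressing suspension cells in IBMX-containing HBSS; 30 min RT stimulation. Read: luminescent cAMP immunocompetition after O/N dark incubation.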

The target in test [1] is T2, GLP-1R (Homo sapiens, UniProt P43220). As to the kind of experiment: PathHunter β-arrestin assay. An outline of the steps:
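Following a 90 min agonist exposure at 37 °C in 0.2% BSA medium, β-arrestin coupling was detected by chemiluminescence after 3 h at room temperature.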

The target of test [2] is T2, GLP-1R. As to the kind of experiment: HitHunter cAMP assay (GLP-1R). To be noted: cAMP; for Emax: read-out: (Emax) GLP-1R. The procedure, abridged: as §1
[3] abbreviates: Table 3A, read-out: EC50 GIP-R/nM.
The mark [4] stands for this setting: PathHunter β-arrestin assay, read-out: β-arrestin activity EC50.
[5] abbreviates: Table 3A, read-out: EC50 GLP-1R/nM.

The structures appear in SMILES notation. pEC50: −log10 of the molar value. Like-named read-outs stand apart in the source and are kept apart here.

Usually Emax stands for the maximal effect, on the per cent scale that the assay sets. As usually defined, the pEC50 is −log10 of the EC50, conventionally taken in molar units.

T2 sequence (P43220 24-463): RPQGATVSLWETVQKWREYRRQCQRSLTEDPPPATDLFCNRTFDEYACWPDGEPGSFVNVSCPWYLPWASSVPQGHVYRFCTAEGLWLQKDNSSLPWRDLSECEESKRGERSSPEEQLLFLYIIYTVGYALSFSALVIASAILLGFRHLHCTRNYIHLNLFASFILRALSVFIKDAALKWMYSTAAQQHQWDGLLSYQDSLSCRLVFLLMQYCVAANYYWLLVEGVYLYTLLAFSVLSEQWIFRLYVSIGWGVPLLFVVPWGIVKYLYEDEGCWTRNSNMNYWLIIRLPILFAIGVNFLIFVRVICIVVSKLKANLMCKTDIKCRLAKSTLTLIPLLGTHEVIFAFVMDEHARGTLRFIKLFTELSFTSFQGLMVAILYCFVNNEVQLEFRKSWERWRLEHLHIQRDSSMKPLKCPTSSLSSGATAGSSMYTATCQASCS

In the case of `CCCCCCCCCCCCCCCC(=O)N[C@@H](CCC(=O)NCCCC[C@H](NC(=O)[C@H](CO)NC(=O)[C@@H]1CCCN1C(=O)[C@@H]1CCCN1C(=O)[C@@H]1CCCN1C(=O)[C@H](C)NC(=O)CNC(=O)[C@H](CO)NC(=O)[C@H](CO)NC(=O)[C@@H]1CCCN1C(=O)CNC(=O)CNC(=O)[C@H](C)NC(=O)[C@H](CC(C)C)NC(=O)[C@H](CC(C)C)NC(=O)[C@H](Cc1c[nH]c2ccccc12)NC(=O)[C@H](CC(N)=O)NC(=O)[C@@H](NC(=O)[C@H](Cc1ccccc1)NC(=O)[C@H](CCC(=O)O)NC(=O)C(C)(C)NC(=O)[C@H](C)NC(=O)[C@H](C)NC(=O)[C@H](CCC(N)=O)NC(=O)[C@H](CCCCN)NC(=O)[C@H](CC(=O)O)NC(=O)[C@H](CC(C)C)NC(=O)[C@H](Cc1ccc(O)cc1)NC(=O)[C@@H](NC(=O)[C@H](CO)NC(=O)[C@H](Cc1ccc(O)cc1)NC(=O)[C@H](CC(=O)O)NC(=O)[C@H](CO)NC(=O)[C@@H](NC(=O)[C@H](Cc1ccccc1)NC(=O)[C@@H](NC(=O)CNC(=O)[C@H](CCC(=O)O)NC(=O)CSCC(=O)NCCN1C(=O)CC[C@H]1CO)[C@@H](C)O)[C@@H](C)O)[C@@H](C)CC)C(C)C)C(N)=O)C(=O)O` [Compound 44], the EC50 on GIP-R (EC50 GIP-R/nM, Table 3) lay in the range of 1 to 10 nM; on GIP-R (EC50 GIP-R/nM, Table 3A), 1 to 10 nM; at GLP-1R [2] (EC50 GLP-1R/nM, Table 3), 0.1 to 1 nM; at GLP-1R [2] (EC50 GLP-1R/nM, Table 3A) it was 0.1 to 1 nM. Moreover, the Emax is 54 to 67% at GIP-R (Table 3), 54 to 67% at GIP-R (Table 3A), 97 to 99% at GLP-1R [2] (Table 3) and 97 to 99% on GLP-1R [2] (Table 3A). Besides, the pEC50 at GLP-1R [1] is less than 6.00.
On to `CC[C@H](C)[C@H](NC(=O)[C@H](CO)NC(=O)[C@H](Cc1ccc(O)cc1)NC(=O)[C@H](CC(=O)O)NC(=O)[C@H](CO)NC(=O)[C@@H](NC(=O)[C@H](Cc1ccccc1)NC(=O)[C@@H](NC(=O)CNC(=O)[C@H](CCC(=O)O)NC(=O)CCCNC(=O)CCN1C(=O)c2ccccc2C1=O)[C@@H](C)O)[C@@H](C)O)C(=O)N[C@@H](Cc1ccc(O)cc1)C(=O)N[C@@H](CC(C)C)C(=O)N[C@@H](CC(=O)O)C(=O)N[C@@H](CCCCN)C(=O)N[C@@H](CCC(N)=O)C(=O)N[C@@H](C)C(=O)N[C@@H](C)C(=O)NC(C)(C)C(=O)N[C@@H](CCC(=O)O)C(=O)N[C@@H](Cc1ccccc1)C(=O)N[C@H](C(=O)N[C@@H](CC(N)=O)C(=O)N[C@@H](Cc1c[nH]c2ccccc12)C(=O)N[C@@H](CC(C)C)C(=O)N[C@@H](CC(C)C)C(=O)N[C@@H](C)C(=O)NCC(=O)NCC(=O)N1CCC[C@H]1C(=O)N[C@@H](CO)C(=O)N[C@@H](CO)C(=O)NCC(=O)N[C@@H](C)C(=O)N1CCC[C@H]1C(=O)N1CCC[C@H]1C(=O)N1CCC[C@H]1C(=O)N[C@@H](CO)C(=O)N[C@@H](CCCCN)C(N)=O)C(C)C` [Compound 154], for which the Emax at GIP-R (Table 3) was 78%; at GIP-R (Table 3A), 78%; at GLP-1R [2] (Table 3), 80%; on GLP-1R [2] (Table 3A), 80%. Also, the EC50 on GIP-R (Table 3, read-out: EC50 GIP-R/nM) was 1 to 10 nM; on GIP-R (setting [3]) it was 1 to 10 nM; on GLP-1R [2] (Table 3, read-out: EC50 GLP-1R/nM), 1 to 10 nM; on GLP-1R [2] (setting [5]), 1 to 10 nM. Also, the pEC50 at GLP-1R [1] (setting [4]) is less than 6.00.
Regarding `CCCCCCCCCCCCCCCC(=O)N[C@@H](CCC(=O)NCCCC[C@H](NC(=O)[C@H](CO)NC(=O)[C@@H]1CCCN1C(=O)[C@@H]1CCCN1C(=O)[C@@H]1CCCN1C(=O)[C@H](C)NC(=O)CNC(=O)[C@H](CO)NC(=O)[C@H](CO)NC(=O)[C@@H]1CCCN1C(=O)CNC(=O)CNC(=O)[C@H](C)NC(=O)[C@H](CC(C)C)NC(=O)[C@H](CC(C)C)NC(=O)[C@H](Cc1c[nH]c2ccccc12)NC(=O)[C@H](CC(N)=O)NC(=O)[C@@H](NC(=O)[C@H](Cc1ccccc1)NC(=O)[C@H](CCC(=O)O)NC(=O)C(C)(C)NC(=O)[C@H](C)NC(=O)[C@H](C)NC(=O)[C@H](CCC(N)=O)NC(=O)[C@H](CCCCN)NC(=O)[C@H](CC(=O)O)NC(=O)[C@H](CC(C)C)NC(=O)[C@H](Cc1ccc(O)cc1)NC(=O)[C@@H](NC(=O)[C@H](CO)NC(=O)[C@H](Cc1ccc(O)cc1)NC(=O)[C@H](CC(=O)O)NC(=O)[C@H](CO)NC(=O)[C@@H](NC(=O)[C@H](Cc1ccccc1)NC(=O)[C@@H](NC(=O)CNC(=O)[C@H](CCC(=O)O)NC(=O)[C@@H](C)NC(=O)CCN1CCCCC1=O)[C@@H](C)O)[C@@H](C)O)[C@@H](C)CC)C(C)C)C(N)=O)C(=O)O` [Compound 214], the Emax is 45% at GIP-R (Table 3A) and 95% at GLP-1R [2] (Table 3A). The EC50 on GIP-R (setting [3]) was 1 to 10 nM; on GLP-1R [2] (setting [5]) it was less than 0.1 nM. The pEC50 at GLP-1R [1] (setting [4]) is 6.00 to 8.00.
Take `CCCCCCCCCCCCCCCC(=O)N[C@@H](CCC(=O)NCCCC[C@H](NC(=O)[C@H](CO)NC(=O)[C@@H]1CCCN1C(=O)[C@@H]1CCCN1C(=O)[C@@H]1CCCN1C(=O)[C@H](C)NC(=O)CNC(=O)[C@H](CO)NC(=O)[C@H](CO)NC(=O)[C@@H]1CCCN1C(=O)CNC(=O)CNC(=O)[C@H](C)NC(=O)[C@H](CC(C)C)NC(=O)[C@H](CC(C)C)NC(=O)[C@H](Cc1c[nH]c2ccccc12)NC(=O)[C@H](CC(N)=O)NC(=O)[C@@H](NC(=O)[C@H](Cc1ccccc1)NC(=O)[C@H](CCC(=O)O)NC(=O)C(C)(C)NC(=O)[C@H](C)NC(=O)[C@H](C)NC(=O)[C@H](CCC(N)=O)NC(=O)[C@H](CCCCN)NC(=O)[C@H](CC(=O)O)NC(=O)[C@H](CC(C)C)NC(=O)[C@H](Cc1ccc(O)cc1)NC(=O)[C@@H](NC(=O)[C@H](CO)NC(=O)[C@H](Cc1ccc(O)cc1)NC(=O)[C@H](CC(=O)O)NC(=O)[C@H](CO)NC(=O)[C@@H](NC(=O)[C@H](Cc1ccccc1)NC(=O)[C@@H](NC(=O)CNC(=O)[C@H](CCC(=O)O)NC(=O)CSCC(=O)NCCN1C(=O)CCCC1=O)[C@@H](C)O)[C@@H](C)O)[C@@H](C)CC)C(C)C)C(N)=O)C(=O)O` [Compound 123]: the EC50 lay within 0.1 to 1 nM at GIP-R (EC50 GIP-R/nM, Table 3); 0.1 to 1 nM on GIP-R (EC50 GIP-R/nM, Table 3A); 1 to 10 nM at GLP-1R [2] (EC50 GLP-1R/nM, Table 3); 1 to 10 nM on GLP-1R [2] (EC50 GLP-1R/nM, Table 3A). In addition, the Emax was found to be 111% on GIP-R (Table 3), 111% on GIP-R (Table 3A), 104% at GLP-1R [2] (Table 3) and 104% at GLP-1R [2] (Table 3A). At GLP-1R [1], this molecule had a pEC50 of less than 6.00.
Turning to `CC[C@H](C)[C@H](NC(=O)[C@H](CO)NC(=O)[C@H](Cc1ccc(O)cc1)NC(=O)[C@H](CC(=O)O)NC(=O)[C@H](CO)NC(=O)[C@@H](NC(=O)[C@H](Cc1ccccc1)NC(=O)[C@@H](NC(=O)CNC(=O)[C@H](CCC(=O)O)NC(=O)CSCC(=O)NCCN1C(=O)c2cc3ccccc3cc2C1=O)[C@@H](C)O)[C@@H](C)O)C(=O)N[C@@H](Cc1ccc(O)cc1)C(=O)N[C@@H](CC(C)C)C(=O)N[C@@H](CC(=O)O)C(=O)N[C@@H](CCCCN)C(=O)N[C@@H](CCC(N)=O)C(=O)N[C@@H](C)C(=O)N[C@@H](C)C(=O)NC(C)(C)C(=O)N[C@@H](CCC(=O)O)C(=O)N[C@@H](Cc1ccccc1)C(=O)N[C@H](C(=O)N[C@@H](CC(N)=O)C(=O)N[C@@H](Cc1c[nH]c2ccccc12)C(=O)N[C@@H](CC(C)C)C(=O)N[C@@H](CC(C)C)C(=O)N[C@@H](C)C(=O)NCC(=O)NCC(=O)N1CCC[C@H]1C(=O)N[C@@H](CO)C(=O)N[C@@H](CO)C(=O)NCC(=O)N[C@@H](C)C(=O)N1CCC[C@H]1C(=O)N1CCC[C@H]1C(=O)N1CCC[C@H]1C(=O)N[C@@H](CO)C(=O)N[C@@H](CCCCN)C(N)=O)C(C)C` [Compound 163], the EC50 on GIP-R (EC50 GIP-R/nM, Table 3) was less than 0.1 nM; at GIP-R (EC50 GIP-R/nM, Table 3A), less than 0.1 nM; on GLP-1R [2] (EC50 GLP-1R/nM, Table 3) it was 10 to 100 nM; at GLP-1R [2] (EC50 GLP-1R/nM, Table 3A) it was 10 to 100 nM. Besides, the Emax on GIP-R (Table 3) turned out to be 106%; at GIP-R (Table 3A), 106%; at GLP-1R [2] (Table 3), 73%; on GLP-1R [2] (Table 3A), 73%. Further, the pEC50 on GLP-1R [1] was less than 6.00.
For `CCCCCCCCCCCCCCCC(=O)N[C@@H](CCC(=O)NCCCC[C@H](NC(=O)[C@H](CO)NC(=O)[C@@H]1CCCN1C(=O)[C@@H]1CCCN1C(=O)[C@@H]1CCCN1C(=O)[C@H](C)NC(=O)CNC(=O)[C@H](CO)NC(=O)[C@H](CO)NC(=O)[C@@H]1CCCN1C(=O)CNC(=O)CNC(=O)[C@H](C)NC(=O)[C@H](CC(C)C)NC(=O)[C@H](CC(C)C)NC(=O)[C@H](Cc1c[nH]c2ccccc12)NC(=O)[C@H](CC(N)=O)NC(=O)[C@@H](NC(=O)[C@H](Cc1ccccc1)NC(=O)[C@H](CCC(=O)O)NC(=O)C(C)(C)NC(=O)[C@H](C)NC(=O)[C@H](C)NC(=O)[C@H](CCC(N)=O)NC(=O)[C@H](CCCCN)NC(=O)[C@H](CC(=O)O)NC(=O)[C@H](CC(C)C)NC(=O)[C@H](Cc1ccc(O)cc1)NC(=O)[C@@H](NC(=O)[C@H](CO)NC(=O)[C@H](Cc1ccc(O)cc1)NC(=O)[C@H](CC(=O)O)NC(=O)[C@H](CO)NC(=O)[C@@H](NC(=O)[C@H](Cc1ccccc1)NC(=O)[C@@H](NC(=O)CNC(=O)[C@H](CCC(=O)O)NC(=O)CSCC(=O)NCCn1cccc(C)c1=O)[C@@H](C)O)[C@@H](C)O)[C@@H](C)CC)C(C)C)C(N)=O)C(=O)O` [Compound 232], the EC50 at GIP-R (EC50 GIP-R/nM, Table 3A) lay in the range of 1 to 10 nM; at GLP-1R [2] (EC50 GLP-1R/nM, Table 3A), 0.1 to 1 nM. For the same molecule, the Emax at GIP-R (Table 3A) is 78%; at GLP-1R [2] (Table 3A), 95%. Moreover, at GLP-1R [1], the negative logarithm of the EC50 (pEC50) was less than 6.00.

(Values after US20260176320A1, “MODULATORS OF G-PROTEIN COUPLED RECEPTORS” (priority 2018, published 2026).)
